Test results: PubChem BioAssay (NCI)
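Briefly, cells in 96-well plates were exposed to five compound concentrations for 48 h, and endpoints were estimated by linear interpolation. The concentration for 50% growth inhibition is given as GI50. TGI: concentration producing complete growth inhibition.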

Key:
Experiment in all cases: DTP human tumour cell line panel, 48 h
HCT-15 colon = test system: HCT-15 colon
MALME-3M melanoma = test system: MALME-3M melanoma
SNB-19 CNS = test system: SNB-19 CNS
HL-60(TB) leukemia = test system: HL-60(TB) leukemia
NCI-H226 lung = test system: NCI-H226 lung
KM12 colon = test system: KM12 colon
NCI-H522 lung = test system: NCI-H522 lung
TK-10 renal = test system: TK-10 renal
RPMI-8226 leukemia = test system: RPMI-8226 leukemia
LOX IMVI melanoma = test system: LOX IMVI melanoma

Structure (SMILES)	TGI (HCT-15 colon) [µM]	TGI (MALME-3M melanoma) [µM]	TGI (SNB-19 CNS) [µM]	TGI (HL-60(TB) leukemia) [µM]	TGI (NCI-H226 lung) [µM]	TGI (KM12 colon) [µM]	TGI (NCI-H522 lung) [µM]	TGI (TK-10 renal) [µM]	TGI (RPMI-8226 leukemia) [µM]	TGI (LOX IMVI melanoma) [µM]	GI50 (HCT-15 colon) [µM]	GI50 (MALME-3M melanoma) [µM]	GI50 (SNB-19 CNS) [µM]	GI50 (HL-60(TB) leukemia) [µM]	GI50 (NCI-H226 lung) [µM]	GI50 (KM12 colon) [µM]	GI50 (NCI-H522 lung) [µM]	GI50 (TK-10 renal) [µM]	GI50 (RPMI-8226 leukemia) [µM]	GI50 (LOX IMVI melanoma) [µM]
N#CC(C#N)=c1ccc(=C2NCC3CCCN23)cc1 (stereo not given)	> 100	> 100	> 100	> 100	> 100	> 100	> 100	> 100	> 100	> 100	–	–	–	–	–	–	–	–	–	–
COc1cc(C(=O)/C=C/c2sc(Cl)nc2Cl)cc(OC)c1OC	3	3.14	3.18	4.45	6.31	3.84	3.96	4.93	4.57	2.97	1.53	1.59	1.72	1.82	2.4	1.92	1.68	2.06	1.69	1.58
COc1ccc(-n2/c(=N/C(=S)N(C)C)ss/c2=N\C(=S)N(C)C)cc1	> 100	> 100	45.5	> 100	> 100	> 100	16.6	> 100	> 100	> 100	–	–	–	–	–	–	–	–	–	–
CC(=O)NC1=C(NCC(C)(C)C)C(=O)c2ccccc2C1=O	> 100	> 100	> 100	> 100	> 100	> 100	49.7	> 100	–	> 100	–	–	–	–	–	–	–	–	–	–
Cc1nc2c(nc1C)C(=O)c1ccccc1C2=O	8.3	0.704	19.4	13.7	13.3	35.3	10.7	79.5	45.9	7.11	–	–	–	–	–	–	–	–	–	–
O=C1NC2(CCCCC2)C2CCCCC(O)C12 (stereo not given)	> 100	> 100	> 100	> 100	> 100	> 100	–	> 100	> 100	–	–	–	–	–	–	–	–	–	–	–
Clc1cccc(Cc2cn3cc(-c4ccccc4)nc3s2)c1Cl	> 100	> 100	> 100	> 100	> 100	> 100	> 100	> 100	> 100	> 100	> 100	56.2	24.4	> 100	27.3	6.35	19.4	26.1	> 100	14.5
O=C(NCCNc1nccc(-c2c(-c3cccc(O)c3)nc3sccn23)n1)c1ccccc1O	> 46.8	18.7	> 78.7	> 29.4	32.3	15.7	16.9	30.3	10.8	23.7	4.53	0.152	12.6	3.38	9.24	4.41	4.24	6.17	2.27	3.03
c1cc2c(cc1NC1=NCCO1)CCC2	> 10	> 10	7.72	> 10	–	> 10	–	> 10	> 10	> 10	–	–	–	–	–	–	–	–	–	–
CNC(=O)c1cc(Oc2ccc3nc(NC(=O)Nc4ccc(Cl)c(C(F)(F)F)c4)sc3c2)ccn1	–	–	10.2	> 100	7.47	> 100	> 100	4.62	–	> 100	–	–	2.77	> 100	2.69	3.41	2.54	2.29	–	2.68
C=CCc1cc(OC)c2c(c1)C(O)CC(c1ccc(OC)c(OC)c1)O2 (stereo not given)	> 100	–	> 100	> 100	> 100	> 100	> 100	> 100	–	–	–	–	–	–	–	–	–	–	–	–
O=C(O)CCSC(=O)Nc1cccc(F)c1	> 100	–	> 100	> 100	> 100	> 100	–	> 100	> 100	> 100	–	–	–	–	–	–	–	–	–	–
CC(=O)OC1COC(n2c(=S)n(-c3ccc(C)cc3)c(=O)c3ccccc32)C(OC(C)=O)C1OC(C)=O (stereo not given)	> 100	> 100	> 100	–	> 100	> 100	> 100	–	> 100	> 100	–	–	–	–	–	–	–	–	–	–
CC1CN1P1(N2CC2C)=NP(N2CC2C)(N2CC2C)=NP(N2CC2C)(N2CC2C)=N1 (stereo not given)	> 50	> 50	> 50	> 50	> 50	–	> 50	> 50	> 50	–	–	–	–	–	–	–	–	–	–	–
Nc1ccc(C(=O)N/C(=C\c2ccc3c(c2)OCO3)c2nc3[nH]c(=S)[nH]c(=O)c3[nH]2)cc1	> 100	> 100	> 100	–	–	> 100	> 100	> 100	–	–	–	–	–	–	–	–	–	–	–	–
CSc1ccc(/C=C2\CN(C)C/C(=C\c3ccc(SC)cc3)C2=O)cc1	> 100	> 100	–	> 100	> 100	44.8	–	> 100	> 100	22.6	–	–	–	–	–	–	–	–	–	–
COc1ccc(-c2cc(=O)c3ccc(O)cc3o2)c(OC)c1OC	–	> 100	> 100	> 100	> 100	> 100	82.8	> 100	> 100	> 100	–	–	–	–	–	–	–	–	–	–
COc1ccccc1NC(=O)CC(=O)n1nc(C)c(N=Nc2ccccc2C(=O)O)c1C	> 100	> 100	> 100	> 100	–	> 100	> 100	> 100	> 100	> 100	–	–	–	–	–	–	–	–	–	–
COc1ccc(C2=CSc3cc(Cl)c(C)cc3S(=O)(=O)N2C(C)=O)cc1	88.5	–	> 100	43.7	60	92.2	> 100	46.7	94	> 100	24.6	–	36.3	17.2	15.2	23.1	53.9	17.8	26	21
